From patent US20050234122A1, “Prevention of and countermeasures against viral infection” (LIFE SCIENCE INSTITUTE, LTD., priority 2004, published 2005)

Key:
[1] = test system: immune function; conditions: cited from earlier work
[2] = rats suffering from artificial peritonitis; cited from earlier work
[3] = Oxidation of vitamin C dissolved in a juice; assay type: physicochemical; conditions: within about 90 minutes
[4] = Viscosity of mucopolysaccharides after adding vitamin C (Oswald viscometer); conditions: vitamin C added to mucopolysaccharides
[5] = Activity of vitamin C in drip infusion depending on pH; assay type: physicochemical; conditions: drip infusion with a pH of 7.0 or greater

Row | vitamin C that becomes an oxidized derivative [3] | activity of vitamin C [5] | SMILES | decreased weight of the thymus gland and decreased T-cells' capability of blast transformation ([1]; rat suffering from fracture) | T-cells' capability of blast transformation ([1]; rats) | weight of the thymus gland ([1]; rats) | survivorship [2] | viscosity of the mixture [4]
1 | – | – | N=C(N)NCCC[C@H](N)C(=O)O [arginine] | recovered | increases | increases | remarkably increased survivorship | –
2 | 50% | decreases | O=C1O[C@H]([C@@H](O)CO)C(O)=C1O [vitamin C, ascorbic acid] | – | – | – | – | gradually decreases
